In ChEMBL document CHEMBL4385662, “Anti-tubercular activity of novel 4-anilinoquinolines and 4-anilinoquinazolines” (Bioorg Med Chem Lett, 2019) one finds Activity, Ratio and IC50 data, which are given here for 30 molecules.

The subject of test [1] is Mycobacterium tuberculosis. Description: Anti-tubercular activity against Mycobacterium tuberculosis H37Rv expressing LuxABCDE assessed as luminescence signal at 1.3 uM by luminescence based assay relative to untreated control. It is filed as functional.
In test [2] the test system is Mycobacterium tuberculosis. Nature of the test: Anti-tubercular activity against Mycobacterium tuberculosis H37Rv expressing LuxABCDE assessed as luminescence signal at 2.5 uM by luminescence based assay relative to untreated control. It is filed as functional.
Test [3] relates to Mycobacterium tuberculosis. Nature of the test: Anti-tubercular activity against Mycobacterium tuberculosis H37Rv expressing LuxABCDE assessed as relative luminescence by measuring ratio of RLU (test compound)/RLU(no compound) at 10 uM by luminescence based assay. In kind it is functional.
A short description of test [4]: cells. In kind it is ADME, cell-based. To be noted: Homo sapiens, WS1, 48 h.
Description: Cytotoxicity in human WS1 cells assessed as reduction in cell viability incubated fro 48 hrs by alamar blue dye based assay
The subject of test [5] is Mycobacterium tuberculosis. Description: Anti-tubercular activity against Mycobacterium tuberculosis H37Rv expressing LuxABCDE assessed as relative luminescence by measuring ratio of RLU (test compound)/RLU(no compound) at 5 uM by luminescence based assay. It is filed as functional.
The test system of test [6] is Mycobacterium tuberculosis. Nature of the test: Anti-tubercular activity against Mycobacterium tuberculosis H37Rv expressing LuxABCDE assessed as relative luminescence by measuring ratio of RLU (test compound)/RLU(no compound) at 20 uM by luminescence based assay. It is filed as functional.
Test [7] has as its system Mycobacterium tuberculosis. Nature of the test: Anti-tubercular activity against Mycobacterium tuberculosis H37Rv expressing LuxABCDE assessed as relative luminescence by measuring ratio of RLU (test compound)/RLU(no compound) at 1.25 uM by luminescence based assay. It is filed as functional.
Test [8] has as its system Mycobacterium tuberculosis. Description: Anti-tubercular activity against Mycobacterium tuberculosis H37Rv expressing LuxABCDE assessed as relative luminescence by measuring ratio of RLU (test compound)/RLU(no compound) at 2.5 uM by luminescence based assay. It is filed as functional.
The test system of test [9] is Mycobacterium tuberculosis. Nature of the test: Anti-tubercular activity against Mycobacterium tuberculosis H37Rv expressing LuxABCDE assessed as relative luminescence by measuring ratio of RLU (test compound)/RLU(no compound) at 0.625 uM by luminescence based assay. In kind it is functional, organism-based.

The source made the active and inactive calls. The rule behind the calls is not given here.

What is called IC50 is the concentration at which inhibition is half-maximal. A low value points to higher potency.
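For IC50 in this document: cell viability loss read out with alamar blue dye, IC50 being the concentration cutting viability by half.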

Regarding `C#Cc1cccc(Nc2ccnc3cc(OC)c(OC)cc23)c1`, the Activity in test [1] and in [2] was >95% each time. The Ratio worked out at 0.89 in test [3], 1.02 in test [5] and 0.67 in [6]. The IC50 in test [4] is > 100 µM.
For the molecule `COc1ccc2c(Nc3ccc(NC(=O)c4ccc(C)cc4)c(O)c3)ccnc2c1`, the Ratio in [7] is recorded as 1.13; in [3], 1.11; in [8], 1.11; in test [5], 1.09; in test [6] it was 0.96. Besides, the IC50 in [4] is 4.7 µM.
Consider `COc1cc2ncnc(Nc3cc(OC)c(OC)c(OC)c3)c2cc1OC`, for which the Activity in [1] and in test [2] was >95% each time. For the same molecule, the Ratio in test [3] was determined as 1.01; in test [5] it was 1.03; in test [6] it was 0.94. For the same molecule, in test [4], the IC50 was > 100 µM.
As to `COc1cc2nccc(Nc3ccc(NC(=O)c4ccc(C)cc4)c(O)c3)c2cc1OC`, the Ratio was 1.14 in test [7]; 1.05 in test [3]; 1.09 in test [8]; 1.13 in test [5]; 0.45 in [6]. In test [4], this molecule came in with a 50% inhibitory concentration (IC50) of 16 µM.
Take `Oc1ccc2ncnc(Nc3ccc(OCc4ccc(F)cc4)cc3)c2c1`: the Ratio in test [7] worked out at 0.86; in test [3] it was 0.44; in test [8], 0.76; in test [5], 0.64; in [6] it was 0.32. For the same molecule, in test [4], the IC50 was > 100 µM. For the same molecule, in [9], the outcome was inactive.
With `COc1cc2ncnc(Nc3ccc(F)c(Cl)c3)c2cc1OCCCN1CCOCC1`, the result in [9] was inactive.
For `COc1cc2nccc(Nc3ccc(NC(=O)c4ccc(C(C)(C)C)cc4)c(O)c3)c2cc1OC`, the Ratio was 1.1 in test [7]; 0.72 in [3]; 1.12 in test [8]; 1.06 in test [5]; 0.25 in test [6]. For the same molecule, the IC50 in test [4] was determined as 2.6 µM.
`Oc1ccc2c(Nc3ccc(OCc4ccccc4)cc3)ncnc2c1`: the Ratio was 0.9 in test [7]; 0.88 in [3]; 0.9 in test [8]; 0.89 in test [5]; 0.89 in test [6]. Moreover, the IC50 in test [4] was > 100 µM. In addition, in [9], the outcome was inactive.
Consider `COc1cc2ncnc(Nc3ccc(OCc4ccccc4)cc3)c2cc1OC`, for which the Ratio in test [7] is recorded as 1.04; in test [3], 0.77; in [8], 1.04; in test [5], 0.83; in test [6], 0.6. Moreover, the IC50 in test [4] is > 100 µM. The outcome in [9] was inactive.
Consider `C#Cc1cccc(Nc2c(C#N)cnc3cc(OC)c(OC)cc23)c1`, for which the Activity in [1] and in test [2] was >95% each time. In addition, the Ratio in test [3] is recorded as 1.03; in [5], 1.08; in test [6], 0.98. The IC50 in test [4] is > 100 µM.
For the molecule `COc1cc(Nc2ccnc3ccc(C(F)(F)F)cc23)cc(OC)c1OC`, the Activity in test [1] and in test [2] was >95% each time. Moreover, the Ratio is given as 1.14 in test [3], 1.23 in test [5] and 1.21 in [6]. In addition, in [4], the 50% inhibitory concentration (IC50) is > 100 µM.
In the case of `COc1ccc2ncnc(Nc3ccc(OCc4ccccc4)cc3)c2c1`, the Ratio in [7] turned out to be 1.04; in [3], 0.83; in [8], 1.07; in test [5] it was 0.89; in test [6], 0.62. For the same molecule, in test [4], the IC50 was > 100 µM. In test [9], the result was inactive.
In the case of `COc1cc2nccc(Nc3ccc(OCc4cccc(F)c4)c(Cl)c3)c2cc1OC`, the Activity in test [1] and in [2] was >95% throughout. Besides, the Ratio in [3] is reported as 0.22; in [5], 0.78; in test [6], 0.1. The same molecule came in with an IC50 in test [4] of 11 µM.
Take `Oc1cc2ncnc(Nc3ccc(OCc4ccc(F)cc4)cc3)c2cc1O`: the Ratio in [7] was 1.04; in test [3], 0.89; in [8], 1.14; in [5] it was 1; in [6] it was 0.76. Besides, in [4], the 50% inhibitory concentration (IC50) is > 100 µM. The result in test [9] was inactive.
As to `COc1cc2ncnc(Nc3cccc(Br)c3)c2cc1OC`, the Activity in [1] and in [2] was >95% each time. For the same molecule, the Ratio in test [3] is 0.71; in [5] it was 0.98; in test [6], 0.65. In test [4], inhibition was half-maximal at 3.9 µM (IC50).
For the molecule `COc1cc(Nc2ncnc3ccc(C(F)(F)F)cc23)cc(OC)c1OC`, the Activity in test [1] and in [2] was >95% in each case. In addition, the Ratio is recorded as 1.12 in test [3], 1.25 in test [5] and 1.06 in [6]. For the same molecule, the IC50 in [4] was > 100 µM.
`Oc1ccc2ncnc(Nc3ccc(OCc4ccccc4)cc3)c2c1`: the Ratio in [7] is reported as 0.95; in [3], 0.9; in [8], 0.94; in test [5] it was 0.96; in test [6], 0.8. In test [4], this molecule had an IC50 of 26 µM. Moreover, the outcome in test [9] was inactive.
On to `C#Cc1cccc(Nc2ncnc3cc(OC)c(OC)cc23)c1`, for which the Activity in test [1] and in [2] was >95% in each case. Besides, the Ratio in test [3] is 0.83; in [5] it was 0.93; in test [6] it was 0.69. For the same molecule, the IC50 in [4] is > 100 µM.
Turning to `Oc1ccc2nccc(Nc3ccc(OCc4ccccc4)cc3)c2c1`, the Ratio in [7] turned out to be 0.95; in test [3], 0.42; in test [8], 0.86; in [5], 0.66; in test [6], 0.37. Also, the IC50 in test [4] stood at 2.5 µM. Also, in test [9], the outcome was inactive.
As to `COc1cc2nccc(Nc3ccc(NC(C)=O)cc3)c2cc1OC`, the Ratio in test [7] turned out to be 1.21; in test [3] it was 1.07; in test [8] it was 1.1; in test [5], 1.11; in test [6] it was 1.02. Moreover, in test [4], the IC50 was found to be 9.7 µM.
Turning to `COc1ccc2nccc(Nc3ccc(NC(=O)c4ccc(C)cc4)c(O)c3)c2c1`, the Ratio in test [7] was determined as 1.11; in test [3], 1.28; in [8] it was 1.17; in test [5] it was 1.14; in test [6], 0.95. The molecule also returned an IC50 in test [4] of 10 µM.
For the molecule `COc1cc2nccc(Nc3cccc(Br)c3)c2cc1OC`, the Activity in [1] and in [2] was >95% throughout. Moreover, the Ratio was 0.9 in test [3], 1.03 in test [5] and 0.6 in [6]. Further, in test [4], the IC50 amounted to 9.6 µM.
On to `COc1cc2ncc(C#N)c(Nc3cc(OC)c(OC)c(OC)c3)c2cc1OC`, for which the Activity in test [1] and in test [2] was >95% throughout. For the same molecule, the figures for the Ratio in test [3], in [5] and in test [6] were 1.01, 1.03 and 0.97, respectively. Further, the IC50 in test [4] was > 100 µM.
As to `C#Cc1cccc(Nc2ncnc3cc(OCCOC)c(OCCOC)cc23)c1`, the result in [9] was inactive.
`C#Cc1cccc(Nc2ccnc3cc(OCCOC)c(OCCOC)cc23)c1`: the Activity in test [1] and in [2] was >95% throughout. Further, the Ratio in test [3] came to 0.79; in test [5], 0.88; in test [6], 0.58. The IC50 in test [4] is > 100 µM.
Consider `COc1cc2nccc(Nc3cc(OC)c(OC)c(OC)c3)c2cc1OC`, for which the Activity in test [1] and in test [2] was >95% in each case. The Ratio in test [3] stood at 1.11; in test [5], 1.26; in test [6], 1.06. Moreover, the IC50 in test [4] is > 100 µM.
On to `COc1cc2ncc(C#N)c(Nc3cccc(Br)c3)c2cc1OC`, for which the Activity in test [1] and in [2] was >95% each time. Also, the results for the Ratio in [3], in test [5] and in [6] were 0.56, 0.88 and 0.37, respectively. This molecule also came in with an IC50 in test [4] of 11 µM.
On to `COCCOc1cc2ncnc(Nc3cc(OC)c(OC)c(OC)c3)c2cc1OCCOC`, for which the Activity in test [1] and in test [2] was >95% throughout. Further, the Ratio in test [3] amounted to 0.96; in [5], 1.02; in test [6], 0.87. Besides, in test [4], the half-inhibitory concentration (IC50) was > 100 µM.
For the molecule `COc1cc(Nc2ccnc3ccc(Br)cc23)cc(OC)c1OC`, the Activity in test [1] and in test [2] was >95% in each case. Also, the Ratio in [3] worked out at 1.41; in [5] it was 1.35; in test [6] it was 1.28. For the same molecule, the IC50 in test [4] is > 100 µM.
For the molecule `COc1cc2ncnc(Nc3ccc(OCc4cccc(F)c4)c(Cl)c3)c2cc1OC`, the Activity in [1] and in test [2] was >95% throughout. Besides, the Ratio was 0.74 in test [3], 0.92 in test [5] and 0.8 in test [6]. This molecule displayed an IC50 in test [4] of 1.1 µM.
